# From patent US8916711B2, “Imidazothiazole-chalcone derivatives as potential anticancer agents and process for the preparation thereof” (Council of Scientific and Industrial Research, priority 2009, dated 2014)
# Read-outs that look alike come from different tables or passages of the source.
# How the values were obtained:
# Assay type in all cases: cell-based
# CCRF-CEM = assay: NCI in vitro cytotoxicity (SRB, 48 h), Leukemia panel; conditions: Homo sapiens, 48 h exposure
# MOLT-4 = assay: as above; conditions: Homo sapiens; MOLT-4, Leukemia; 48 h exposure
# HL-60(TB) = assay: as above; conditions: Homo sapiens, 48 h exposure
# Procedure: (§1) The imidazothiazole-chalcone hybrids 7a, 7e, 7f, 8f and 19e have been tested against sixty human tumour cell lines derived from nine cancer types (leukemia, non-small cell lung cancer, colon cancer, CNS cancer, melanoma, ovarian cancer, renal cancer, prostate cancer and breast cancer) as per NCI protocol. For each compound, dose response curves for individual cell lines have been measured at a minimum of five concentrations at 10 fold dilutions. A protocol of 48 h continuous drug exposure has been used, and a sulforhodamine B (SRB) protein assay was used to estimate cell viability or growth. The concentration for 50% cell growth inhibition (GI50), total cell growth inhibition (TGI, 0% growth) and 50% cell death (LC50, […]) compared with the control has been calculated (Table-1).
# SR = assay: as above; conditions: Homo sapiens
# Procedure: as §1
# A549/ATCC = assay: NCI in vitro cytotoxicity (SRB, 48 h), Non-small cell lung panel; conditions: Homo sapiens, 48 h exposure
# NCI-H322M = assay: as above; conditions: Homo sapiens, 48 h exposure
# NCI-H522 = assay: as above; conditions: Homo sapiens, 48 h exposure
# HCC-2998 = assay: NCI in vitro cytotoxicity (SRB, 48 h), Colon panel; conditions: Homo sapiens
# HCT-116 = assay: NCI in vitro cytotoxicity (SRB, 48 h), Colon panel; conditions: Homo sapiens; for IC50: HCT-116, HCT116, Table 4, read-out: Comparative efficacy
# HT29 = assay: NCI in vitro cytotoxicity (SRB, 48 h), Colon panel; conditions: Homo sapiens, HT-29, 48 h exposure
# KM12 = assay: NCI in vitro cytotoxicity (SRB, 48 h), Colon panel; conditions: Homo sapiens, 48 h exposure
# SF-268 = assay: NCI in vitro cytotoxicity (SRB, 48 h), CNS panel; conditions: Homo sapiens; SF-268, CNS; 48 h exposure
# SF-295 = assay: NCI in vitro cytotoxicity (SRB, 48 h), CNS panel; conditions: Homo sapiens; SF-295, CNS; 48 h exposure
# SNB-19 = assay: NCI in vitro cytotoxicity (SRB, 48 h), CNS panel; conditions: Homo sapiens; SNB-19, CNS; 48 h exposure
# SNB-75 = assay: NCI in vitro cytotoxicity (SRB, 48 h), CNS panel; conditions: Homo sapiens; SNB-75, CNS; 48 h exposure
# U251 = assay: NCI in vitro cytotoxicity (SRB, 48 h), CNS panel; conditions: Homo sapiens, U-251, 48 h exposure
# OVCAR-3 = assay: NCI in vitro cytotoxicity (SRB, 48 h), Ovarian panel; conditions: Homo sapiens; OVCAR-3, Ovarian; 48 h exposure
# OVCAR-4 = assay: as above; conditions: Homo sapiens; OVCAR-4, Ovarian; 48 h exposure
# OVCAR-8 = assay: as above; conditions: Homo sapiens; OVCAR-8, Ovarian; 48 h exposure
# SN12C = assay: NCI in vitro cytotoxicity (SRB, 48 h), Renal panel; conditions: Homo sapiens, 48 h exposure
# TK-10 = assay: NCI in vitro cytotoxicity (SRB, 48 h), Renal panel; conditions: Homo sapiens; TK-10, Renal; 48 h exposure
# UO-31 = assay: NCI in vitro cytotoxicity (SRB, 48 h), Renal panel; conditions: Homo sapiens; UO-31, Renal; 48 h exposure
# T-47D = assay: NCI in vitro cytotoxicity (SRB, 48 h), Breast panel; conditions: Homo sapiens, T47D, 48 h exposure
# LOX IMVI = assay: NCI in vitro cytotoxicity (SRB, 48 h), Melanoma panel; conditions: Homo sapiens, 48 h exposure
# SK-MEL-5 = assay: as above; conditions: Homo sapiens; SK-MEL-5, Melanoma; 48 h exposure
# Leukemia cell lines = assay: NCI in vitro cytotoxicity, whole panel; conditions: Homo sapiens; for CC50: read-out: Log10 LC50 (converted)
# Colon cancer cell lines = assay: NCI in vitro cytotoxicity, whole panel; conditions: Homo sapiens; for CC50: read-out: Log10 LC50 (converted)
# Melanoma cell lines = assay: NCI in vitro cytotoxicity, whole panel; conditions: Homo sapiens; for CC50: read-out: Log10 LC50 (converted)
# Renal cancer cell lines = assay: NCI in vitro cytotoxicity, whole panel; conditions: Homo sapiens; for CC50: read-out: Log10 LC50 (converted)
# [1] = system: Prostate cancer cell lines; assay: NCI in vitro cytotoxicity, whole panel; conditions: Homo sapiens; for LC50: read-out: Log10 LC50 (converted)
# Breast cancer cell lines = assay: NCI in vitro cytotoxicity, whole panel; conditions: Homo sapiens; for GI50 / CC50: Breast, average of six to eight cell lines; for GI50: read-out: Log10 GI50 (converted); for CC50: read-out: Log10 LC50 (converted); for IC50: exposure period of at least 48 hrs, read-out: IC50, range over breast cell lines
# NCI/ADR-RES = assay: NCI in vitro cytotoxicity (SRB, 48 h), Ovarian panel; conditions: Homo sapiens, 48 h exposure
# HS 578T = assay: NCI in vitro cytotoxicity (SRB, 48 h), Breast panel; conditions: Homo sapiens, 48 h exposure
# MDA-MB-468 = assay: as above; conditions: Homo sapiens; MDA-MB-468, Breast; 48 h exposure
# M14 = assay: NCI in vitro cytotoxicity (SRB, 48 h), Melanoma panel; conditions: Homo sapiens, 48 h exposure
# [2] = Leukemia, average of six to eight cell lines, read-out: Log10 GI50 (converted)
# [3] = Leukemia, average of six to eight cell lines
# [4] = exposure period of at least 48 hrs, read-out: GI50, range over leukemia cell lines
# [5] = Colon, average of six to eight cell lines, read-out: Log10 GI50 (converted)
# [6] = Colon, average of six to eight cell lines
# [7] = exposure period of at least 48 hrs, read-out: GI50, range over colon cell lines
# [8] = Melanoma, average of six to eight cell lines, read-out: Log10 GI50 (converted)
# [9] = Melanoma, average of six to eight cell lines
# [10] = exposure period of at least 48 hrs, read-out: GI50, range over melanoma cell lines
# [11] = Renal, average of six to eight cell lines, read-out: Log10 GI50 (converted)
# [12] = Renal, average of six to eight cell lines
# [13] = exposure period of at least 48 hrs, read-out: GI50, range over renal cell lines
# [14] = Prostate cell, exposure period of at least 48 hrs, read-out: GI50, range over prostate cell lines
# [15] = Prostate, average of the panel's cell lines, read-out: Log10 GI50 (converted)
# [16] = Prostate, average of the panel's cell lines
smiles,measurement,setting,value
"COc1cc(C(=O)/C=C/c2c(C(F)(F)F)nc3sccn23)cc(OC)c1OC [Compound 7f, (E)-3-(6-(trifluoromethyl)imidazo[2,1-b]thiazol-5-yl)-1-(3,4,5-trimethoxyphenyl)prop-2-en-1-one]",GI50,CCRF-CEM,1240 nM
same,GI50,MOLT-4,1920 nM
same,GI50,HL-60(TB),1830 nM
same,GI50,SR,540 nM
same,GI50,SR; 48 h exposure,540 nM
same,GI50,A549/ATCC,3440 nM
same,GI50,NCI-H322M,1960 nM
same,GI50,NCI-H522,2030 nM
same,GI50,"HCC-2998; HCC-2998, Colon, 48 h exposure",1710 nM
same,GI50,"HCC-2998; HCC-2998, colon",1710 nM
same,IC50,HCT-116,1010 nM
same,GI50,"HCT-116; HCT-116, Colon, 48 h exposure",1010 nM
same,GI50,"HCT-116; HCT-116, colon",1010 nM
same,GI50,HT29,1830 nM
same,GI50,KM12,1470 nM
same,GI50,SF-268,1740 nM
same,GI50,SF-295,2580 nM
same,GI50,SNB-19,2670 nM
same,GI50,SNB-75,1870 nM
same,GI50,U251,1380 nM
same,GI50,OVCAR-3,1860 nM
same,GI50,OVCAR-4,3050 nM
same,GI50,OVCAR-8,3080 nM
same,GI50,SN12C,1560 nM
same,GI50,TK-10,2300 nM
same,GI50,UO-31,1870 nM
same,GI50,T-47D,2120 nM
same,GI50,LOX IMVI,1360 nM
same,GI50,SK-MEL-5,1590 nM
same,GI50,Leukemia cell lines; [2],1290 nM
same,CC50,Leukemia cell lines; [3],≥ 100000 nM
same,GI50,Leukemia cell lines; [4],540 to 1920 nM
same,GI50,Colon cancer cell lines; [5],1620 nM
same,CC50,Colon cancer cell lines; [6],8510 nM
same,GI50,Colon cancer cell lines; [7],1010 to 1940 nM
same,GI50,Melanoma cell lines; [8],1700 nM
same,CC50,Melanoma cell lines; [9],9330 nM
same,GI50,Melanoma cell lines; [10],1360 to 2260 nM
same,GI50,Renal cancer cell lines; [11],1860 nM
same,CC50,Renal cancer cell lines; [12],10500 nM
same,GI50,Renal cancer cell lines; [13],1560 to 2300 nM
same,GI50,[1]; [14],1410 to 2660 nM
same,GI50,[1]; [15],1950 nM
same,LC50,[1]; [16],20000 nM
same,GI50,Breast cancer cell lines,2090 nM
same,CC50,Breast cancer cell lines,24500 nM
same,IC50,Breast cancer cell lines,1250 to 2920 nM
"COc1ccc(C(=O)/C=C/c2c(C(F)(F)F)nc3sccn23)cc1OC [Compound 8f, (E)-1-(3,4-dimethoxyphenyl)-3-(6-(trifluoromethyl)imidazo[2,1-b]thiazol-5-yl) prop-2-en-1-one]",GI50,CCRF-CEM,2330 nM
same,GI50,MOLT-4,2220 nM
same,GI50,HL-60(TB),1000 nM
same,GI50,SR,490 nM
same,GI50,SR; 48 h exposure,490 nM
same,GI50,A549/ATCC,4650 nM
same,GI50,NCI-H322M,3170 nM
same,GI50,NCI-H522,2910 nM
same,GI50,"HCC-2998; HCC-2998, Colon, 48 h exposure",5070 nM
same,IC50,HCT-116,1400 nM
same,GI50,"HCT-116; HCT-116, Colon, 48 h exposure",1400 nM
same,GI50,HT29,2010 nM
same,GI50,KM12,1970 nM
same,GI50,SF-268,3440 nM
same,GI50,SF-295,3140 nM
same,GI50,SNB-19,4250 nM
same,GI50,SNB-75,6870 nM
same,GI50,U251,1870 nM
same,GI50,OVCAR-3,2120 nM
same,GI50,OVCAR-4,4080 nM
same,GI50,OVCAR-8,2400 nM
same,GI50,NCI/ADR-RES,1880 nM
same,GI50,SN12C,2980 nM
same,GI50,TK-10,8760 nM
same,GI50,UO-31,8470 nM
same,GI50,HS 578T,2510 nM
same,GI50,T-47D,2900 nM
same,GI50,MDA-MB-468,6180 nM
same,GI50,LOX IMVI,600 nM
same,GI50,M14,2670 nM
same,GI50,SK-MEL-5,4200 nM
same,GI50,Leukemia cell lines; [2],1480 nM
same,CC50,Leukemia cell lines; [3],≥ 100000 nM
same,GI50,Leukemia cell lines; [4],490 to 2330 nM
same,GI50,Colon cancer cell lines; [5],2450 nM
same,CC50,Colon cancer cell lines; [6],≥ 100000 nM
same,GI50,Colon cancer cell lines; [7],1400 to 4560 nM
same,GI50,Melanoma cell lines; [8],3630 nM
same,CC50,Melanoma cell lines; [9],≥ 100000 nM
same,GI50,Melanoma cell lines; [10],600 to 8480 nM
same,GI50,Renal cancer cell lines; [11],4900 nM
same,CC50,Renal cancer cell lines; [12],≥ 100000 nM
same,GI50,Renal cancer cell lines; [13],2460 to 8760 nM
same,GI50,[1]; [14],1640 to 5390 nM
same,GI50,[1]; [15],2950 nM
same,LC50,[1]; [16],≥ 100000 nM
same,GI50,Breast cancer cell lines,2950 nM
same,CC50,Breast cancer cell lines,≥ 100000 nM
same,IC50,Breast cancer cell lines,760 to 6180 nM
